The test system of data set [1] is A549. In words: Cytotoxicity against human A549 cells assessed as cell viability upto 100 uM by CCK8 assay. Type of data set: toxicity, cell-based. The following applies: a549, 100 µM. (Tetrazolium dyes change colour on reduction, which living cells bring about.)
Data set [2] concerns A549. Nature of the data set: Inhibition of cell invasion in human A549 cells. Type of data set: functional, cell-based. The following applies: dose 25-100 µM.
Data set [3] relates to A549. Nature of the data set: Inhibition of cell invasion in human A549 cells by microscopy. The following applies: dose 25-100 µM. Format: functional, cell-based.
Data set [4] is described as follows: Stability in human serum assessed as compound remaining measured after 24 hrs by HPLC analysis. The following applies: read-out: Stability. Format: ADME, cell-free.
The nature of data set [5]: Stability in human serum assessed as half life by HPLC analysis. Format: ADME, cell-free.
Data set [6] has as its system A549. In words: Upregulation of TIMP-1 level in human A549 cells at 100 uM by Western blot analysis. Type of data set: functional, cell-based. In general terms: A western blot detects proteins with antibodies after separation by electrophoresis.
In data set [7] the test system is A549. Nature of the data set: Upregulation of TIMP-2 level in human A549 cells at 100 uM by Western blot analysis. Format: functional, cell-based.
The subject of data set [8] is A549. In words: Upregulation of TIMP-1 mRNA level in human A549 cells at 100 uM by qPCR analysis. Type of data set: functional, cell-based. (In general: In qPCR the cycle at which signal appears reflects the starting amount.)
Data set [9] has as its system A549. In words: Upregulation of TIMP-2 mRNA level in human A549 cells at 100 uM by qPCR analysis. Format: functional, cell-based.
Data set [10] relates to A549. In words: Inhibition of cell invasion in human A549 cells at 100 uM. Type of data set: functional, cell-based.
In data set [11] the test system is A549. Nature of the data set: Inhibition of cell invasion in human A549 cells at 100 uM by microscopy. Type of data set: functional, cell-based.
The subject of data set [12] is A549. In words: Downregulation of MMP-9 level in human A549 cells at 100 uM by Western blot analysis. Type of data set: functional, cell-based.
Data set [13] relates to A549. Nature of the data set: Inhibition of cell invasion in human A549 cells at 25 to 100 uM. The following applies: dose 25-100 µM. Format: functional, cell-based.
Data set [14] deals with A549. Nature of the data set: Downregulation of MMP-2 level in human A549 cells at 100 uM by Western blot analysis. Format: functional, cell-based.

Calls of active or inactive are those of the source. The rule behind the calls is not given here. Where a SMILES comes first, the peptide text is derived from it. Bounds are passed on as bounds.

For `CC(C)C[C@@H]1NC(=O)[C@H](C)NC(=O)[C@H](Cc2ccccc2)NC(=O)[C@H](CO)NC(=O)[C@H](CC(=O)O)NC(=O)[C@H](CC(C)C)NC(=O)[C@H](Cc2c[nH]c3ccccc23)NC(=O)[C@H](CO)NC1=O` (cyclo(ALSWLDSF)), the Activity result in the data set on A549 [1] is on record as “Non-Toxic”. Besides, the inhibition result in the data set on A549 [2] and with A549 [3] was “Dose-Dependent Effect” throughout. The remaining at 24 h in [4] was above 80%. The half-life (commonly the time in which the quantity being followed falls by half) in [5] is above 24 h. The result with A549 [6], with A549 [8] and in the data set on A549 [9] was Active. Besides, the result with A549 [7] was inactive.
For H-ASFGLSWL-OH, the Activity entry in the data set on A549 [1] is “Non-Toxic”. The inhibition result with A549 [10] is “inactive”.
Regarding H-DSFGASWL-OH, in the data set with A549 [1], the Activity result is “Non-Toxic”. Also, in the data set on A549 [10], the inhibition result is “inactive”.
Regarding `CC(C)C[C@@H]1NC(=O)[C@H](CCCCN)NC(=O)[C@H](Cc2ccccc2)NC(=O)[C@H](CO)NC(=O)[C@H](CC(=O)O)NC(=O)[C@H](CC(C)C)NC(=O)[C@H](Cc2c[nH]c3ccccc23)NC(=O)[C@H](CO)NC1=O` (cyclo(DSFKLSWL)), the Activity result with A549 [1] is reported as “Non-Toxic”.
Still for that read-out and setting: then `CC(C)C[C@@H]1NC(=O)CNC(=O)[C@H](Cc2ccccc2)NC(=O)[C@H](CO)NC(=O)[C@H](CC(=O)O)NC(=O)[C@H](CC(C)C)NC(=O)[C@H](Cc2c[nH]c3ccccc23)NC(=O)[C@H](CO)NC1=O` (cyclo(DSFGLSWL)), with “Non-Toxic”.
On to Ac-DSFGLSWL-NH2, for which the Activity result in the data set on A549 [1] was “Non-Toxic”. Besides, the inhibition entry in the data set with A549 [10] was “inactive”.
Take H-DSFALSWL-OH: the Activity result with A549 [1] is “Non-Toxic”. Also, the inhibition result with A549 [10] and in the data set on A549 [11] was “Active” throughout. Moreover, the inhibition entry with A549 [2] was “Dose-Dependent Effect”. For the same compound, the remaining at 24 h in [4] was around 23%. Also, the outcome with A549 [6], in the data set with A549 [12], with A549 [8] and in the data set on A549 [9] was Active. Besides, the result with A549 [7] was inactive.
With H-DSFGLSAL-OH, in the data set on A549 [1], the Activity result is reported as “Non-Toxic”. The inhibition entry with A549 [10] is “inactive”.
Take H-DSFLLSWL-OH: in the data set with A549 [1], the Activity entry is on record as “Non-Toxic”. For the same compound, in the data set with A549 [13], the inhibition entry was “inactive”.
Take H-DSFVLSWL-OH: the Activity entry in the data set on A549 [1] is “Non-Toxic”. Also, the inhibition result in the data set with A549 [13] was “Active”. The result in the data set with A549 [6], in the data set with A549 [14] and with A549 [8] was Active. In addition, the outcome in the data set on A549 [7] and in the data set on A549 [9] was inactive.
Take H-DSFGLSWL-OH: the Activity entry in the data set on A549 [1] was “Non-Toxic”.
Consider H-DSFDLSWL-OH, for which the Activity entry in the data set on A549 [1] was “Non-Toxic”.
The same measure, in the same setting: to H-DSFRLSWL-OH belongs “Non-Toxic”; to H-DSAGLSWL-OH, “Non-Toxic”.
As for H-DAFGLSWL-OH, the Activity entry with A549 [1] is listed as “Non-Toxic”. For the same compound, in the data set with A549 [10], the inhibition result is “inactive”.
For the compound H-DSFKLSWL-OH, the Activity result in the data set with A549 [1] is given as “Non-Toxic”. Also, the inhibition result with A549 [2] is “Dose-Dependent Effect”. The outcome in the data set with A549 [6], in the data set on A549 [14] and in the data set with A549 [8] was Active. Further, the result in the data set on A549 [7] and with A549 [9] was inactive.
As to H-DSFGLSWA-OH, the Activity result with A549 [1] is on record as “Non-Toxic”. Also, the inhibition result in the data set on A549 [10] is “inactive”.
Take H-DSFGLAWL-OH: the Activity result in the data set with A549 [1] is “Non-Toxic”.

The values above are taken from ChEMBL document CHEMBL5579800, “Further structural optimization and SAR study of sungsanpin derivatives as cell-invasion inhibitors” (Bioorg Med Chem Lett, 2024).
